Key:
[1] = molecular target: D(1A) dopamine receptor (Homo sapiens) (UniProt P21728); details: Compound concentration 10.0 uM
[2] = molecular target: Serine/threonine-protein kinase Nek7 (Homo sapiens) (UniProt Q8TDX7); details: Compound concentration 1.0 uM
[3] = molecular target: T1, Serine/threonine-protein kinase tousled-like 1 (Homo sapiens) (UniProt Q9UKI8); details: Compound concentration 1.0 uM
T1 sequence (whole entry): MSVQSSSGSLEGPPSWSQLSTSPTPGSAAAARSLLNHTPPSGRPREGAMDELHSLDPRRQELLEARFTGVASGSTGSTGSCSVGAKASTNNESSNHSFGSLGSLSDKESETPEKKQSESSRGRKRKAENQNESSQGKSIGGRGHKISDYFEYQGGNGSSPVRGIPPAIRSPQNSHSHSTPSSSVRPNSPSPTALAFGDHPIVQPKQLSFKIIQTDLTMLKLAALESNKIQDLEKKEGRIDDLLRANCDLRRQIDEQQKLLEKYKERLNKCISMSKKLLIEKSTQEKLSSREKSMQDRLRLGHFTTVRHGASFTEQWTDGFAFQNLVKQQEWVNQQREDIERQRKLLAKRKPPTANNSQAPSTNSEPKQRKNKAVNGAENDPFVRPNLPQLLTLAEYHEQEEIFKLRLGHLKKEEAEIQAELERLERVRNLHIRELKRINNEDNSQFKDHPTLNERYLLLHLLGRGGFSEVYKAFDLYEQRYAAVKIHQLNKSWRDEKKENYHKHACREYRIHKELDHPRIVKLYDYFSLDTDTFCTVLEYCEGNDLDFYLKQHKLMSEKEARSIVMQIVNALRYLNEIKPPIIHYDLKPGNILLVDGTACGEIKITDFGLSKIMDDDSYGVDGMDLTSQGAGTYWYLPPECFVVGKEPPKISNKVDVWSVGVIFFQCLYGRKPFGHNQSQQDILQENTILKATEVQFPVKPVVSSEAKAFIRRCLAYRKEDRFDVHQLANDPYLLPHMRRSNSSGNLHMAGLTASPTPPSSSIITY

[4] = molecular target: Protein kinase C eta type (Homo sapiens) (UniProt P24723); details: Compound concentration 1.0 uM
Chain of Protein kinase C eta type (Homo sapiens) (P24723 whole entry): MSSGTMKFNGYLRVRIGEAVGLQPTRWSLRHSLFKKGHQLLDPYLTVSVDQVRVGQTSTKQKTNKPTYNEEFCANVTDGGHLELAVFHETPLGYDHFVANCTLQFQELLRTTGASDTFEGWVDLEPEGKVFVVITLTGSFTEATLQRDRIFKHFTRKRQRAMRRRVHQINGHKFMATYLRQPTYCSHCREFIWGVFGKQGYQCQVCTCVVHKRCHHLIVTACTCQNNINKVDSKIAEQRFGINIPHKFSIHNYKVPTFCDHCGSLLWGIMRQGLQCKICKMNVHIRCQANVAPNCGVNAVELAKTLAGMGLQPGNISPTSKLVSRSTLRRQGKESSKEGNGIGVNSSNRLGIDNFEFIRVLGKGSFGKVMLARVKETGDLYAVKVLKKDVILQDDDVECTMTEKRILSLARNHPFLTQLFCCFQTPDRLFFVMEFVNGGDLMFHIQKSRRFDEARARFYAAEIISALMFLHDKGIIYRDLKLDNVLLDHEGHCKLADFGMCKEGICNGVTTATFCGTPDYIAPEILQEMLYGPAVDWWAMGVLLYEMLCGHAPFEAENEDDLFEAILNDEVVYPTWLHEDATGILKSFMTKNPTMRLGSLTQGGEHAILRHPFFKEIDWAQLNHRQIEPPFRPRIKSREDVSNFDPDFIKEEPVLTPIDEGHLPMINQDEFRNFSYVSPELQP

[5] = molecular target: Homeodomain-interacting protein kinase 3 (Homo sapiens) (UniProt Q9H422); details: Compound concentration 1.0 uM
Chain of Homeodomain-interacting protein kinase 3 (Homo sapiens) (Q9H422 whole entry, looked up): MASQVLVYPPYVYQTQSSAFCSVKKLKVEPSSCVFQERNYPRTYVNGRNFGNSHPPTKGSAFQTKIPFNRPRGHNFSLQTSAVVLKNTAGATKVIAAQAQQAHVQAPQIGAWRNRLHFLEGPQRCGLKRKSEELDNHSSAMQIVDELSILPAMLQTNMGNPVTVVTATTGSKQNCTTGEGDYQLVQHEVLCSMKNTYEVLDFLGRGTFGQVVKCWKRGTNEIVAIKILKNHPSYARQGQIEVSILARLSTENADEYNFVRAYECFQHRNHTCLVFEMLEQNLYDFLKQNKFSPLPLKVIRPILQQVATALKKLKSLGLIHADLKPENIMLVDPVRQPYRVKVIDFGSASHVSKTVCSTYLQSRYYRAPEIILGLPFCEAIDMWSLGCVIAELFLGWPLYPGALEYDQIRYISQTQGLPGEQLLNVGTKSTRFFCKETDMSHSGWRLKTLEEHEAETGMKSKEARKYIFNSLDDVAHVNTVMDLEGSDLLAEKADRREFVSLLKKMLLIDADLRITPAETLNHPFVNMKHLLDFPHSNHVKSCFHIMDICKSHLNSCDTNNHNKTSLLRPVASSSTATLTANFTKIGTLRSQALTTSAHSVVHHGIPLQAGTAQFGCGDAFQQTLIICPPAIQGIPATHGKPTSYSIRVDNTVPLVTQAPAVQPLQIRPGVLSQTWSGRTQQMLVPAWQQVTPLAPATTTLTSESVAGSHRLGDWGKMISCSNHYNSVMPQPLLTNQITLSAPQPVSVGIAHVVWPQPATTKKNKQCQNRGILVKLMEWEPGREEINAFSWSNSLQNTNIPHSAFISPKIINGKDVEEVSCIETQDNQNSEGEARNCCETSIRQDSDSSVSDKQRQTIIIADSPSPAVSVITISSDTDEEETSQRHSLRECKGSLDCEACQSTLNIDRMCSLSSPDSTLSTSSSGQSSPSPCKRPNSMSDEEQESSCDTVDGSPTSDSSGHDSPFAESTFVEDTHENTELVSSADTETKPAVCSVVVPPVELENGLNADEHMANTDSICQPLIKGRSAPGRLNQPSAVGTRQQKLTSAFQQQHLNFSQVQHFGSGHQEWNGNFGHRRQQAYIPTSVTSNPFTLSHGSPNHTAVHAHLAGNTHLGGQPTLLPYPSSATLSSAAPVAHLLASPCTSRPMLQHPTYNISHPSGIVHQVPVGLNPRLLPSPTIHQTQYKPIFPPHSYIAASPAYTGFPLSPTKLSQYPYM

[6] = molecular target: Serine/threonine-protein kinase tousled-like 2 (Homo sapiens) (UniProt Q86UE8); details: Compound concentration 1.0 uM
Chain of Serine/threonine-protein kinase tousled-like 2 (Homo sapiens) (Q86UE8 whole entry, looked up): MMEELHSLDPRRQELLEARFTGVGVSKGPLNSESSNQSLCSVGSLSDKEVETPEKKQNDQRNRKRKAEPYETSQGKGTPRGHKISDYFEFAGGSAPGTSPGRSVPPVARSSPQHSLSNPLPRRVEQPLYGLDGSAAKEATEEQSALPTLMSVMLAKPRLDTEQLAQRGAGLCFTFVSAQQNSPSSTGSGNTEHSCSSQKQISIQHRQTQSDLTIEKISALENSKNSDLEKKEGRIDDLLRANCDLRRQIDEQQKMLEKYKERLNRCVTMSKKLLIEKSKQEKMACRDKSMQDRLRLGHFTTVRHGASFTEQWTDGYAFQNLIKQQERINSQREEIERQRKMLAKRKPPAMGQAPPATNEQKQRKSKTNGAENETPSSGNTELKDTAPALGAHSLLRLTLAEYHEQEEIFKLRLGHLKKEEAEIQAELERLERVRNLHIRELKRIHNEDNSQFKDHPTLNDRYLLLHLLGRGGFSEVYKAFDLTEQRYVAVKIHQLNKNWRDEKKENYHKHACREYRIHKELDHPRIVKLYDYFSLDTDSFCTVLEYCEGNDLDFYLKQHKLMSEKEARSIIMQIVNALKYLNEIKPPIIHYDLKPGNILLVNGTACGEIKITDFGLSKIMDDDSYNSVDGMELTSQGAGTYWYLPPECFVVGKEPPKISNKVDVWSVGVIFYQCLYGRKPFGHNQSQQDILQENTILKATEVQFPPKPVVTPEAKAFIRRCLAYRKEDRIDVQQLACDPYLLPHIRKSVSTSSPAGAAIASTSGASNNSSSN

[7] = molecular target: Serine/threonine-protein kinase pim-2 (Homo sapiens) (UniProt Q9P1W9); details: Compound concentration 1.0 uM
Chain of Serine/threonine-protein kinase pim-2 (Homo sapiens) (Q9P1W9 whole entry, looked up): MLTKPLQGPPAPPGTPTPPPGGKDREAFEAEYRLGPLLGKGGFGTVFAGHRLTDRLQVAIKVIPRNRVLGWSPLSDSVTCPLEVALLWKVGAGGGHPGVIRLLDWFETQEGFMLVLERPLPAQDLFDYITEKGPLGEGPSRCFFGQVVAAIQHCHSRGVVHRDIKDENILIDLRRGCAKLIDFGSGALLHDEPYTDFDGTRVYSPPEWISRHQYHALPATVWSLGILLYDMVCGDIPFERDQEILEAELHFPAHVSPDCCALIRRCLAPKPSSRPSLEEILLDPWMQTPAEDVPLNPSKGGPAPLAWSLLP

[8] = molecular target: Calcium/calmodulin-dependent protein kinase type 1B (Homo sapiens) (UniProt Q6P2M8); details: Compound concentration 1.0 uM
Chain of Calcium/calmodulin-dependent protein kinase type 1B (Homo sapiens) (Q6P2M8 whole entry): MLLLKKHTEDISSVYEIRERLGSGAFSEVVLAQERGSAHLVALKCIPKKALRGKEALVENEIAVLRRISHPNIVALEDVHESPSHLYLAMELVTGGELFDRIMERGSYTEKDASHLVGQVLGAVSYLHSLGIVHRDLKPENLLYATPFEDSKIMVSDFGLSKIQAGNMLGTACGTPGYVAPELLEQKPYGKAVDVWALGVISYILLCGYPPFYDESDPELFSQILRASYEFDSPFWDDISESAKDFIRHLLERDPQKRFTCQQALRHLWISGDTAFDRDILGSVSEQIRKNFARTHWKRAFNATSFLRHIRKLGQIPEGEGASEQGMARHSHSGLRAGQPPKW

[9] = molecular target: T2, NUAK family SNF1-like kinase 1 (Homo sapiens) (UniProt O60285); details: Compound concentration 1.0 uM
T2 sequence (whole entry): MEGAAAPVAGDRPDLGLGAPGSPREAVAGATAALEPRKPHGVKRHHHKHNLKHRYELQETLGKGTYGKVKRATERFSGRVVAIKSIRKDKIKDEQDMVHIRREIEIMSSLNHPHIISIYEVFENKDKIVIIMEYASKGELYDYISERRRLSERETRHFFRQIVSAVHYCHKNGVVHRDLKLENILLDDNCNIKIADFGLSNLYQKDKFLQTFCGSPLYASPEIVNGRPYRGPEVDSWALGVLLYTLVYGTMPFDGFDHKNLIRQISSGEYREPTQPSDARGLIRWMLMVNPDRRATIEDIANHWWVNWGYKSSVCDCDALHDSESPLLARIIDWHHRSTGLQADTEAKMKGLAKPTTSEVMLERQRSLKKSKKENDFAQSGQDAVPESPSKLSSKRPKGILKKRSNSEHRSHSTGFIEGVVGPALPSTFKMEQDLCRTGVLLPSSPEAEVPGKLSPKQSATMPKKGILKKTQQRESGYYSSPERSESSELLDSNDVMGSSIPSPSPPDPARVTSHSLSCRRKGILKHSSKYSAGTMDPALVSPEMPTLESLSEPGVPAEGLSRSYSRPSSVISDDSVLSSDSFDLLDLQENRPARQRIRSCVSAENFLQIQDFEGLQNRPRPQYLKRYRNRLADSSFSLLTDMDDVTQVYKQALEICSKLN

[10] = molecular target: Dual specificity tyrosine-phosphorylation-regulated kinase 1A (Homo sapiens) (UniProt Q13627); details: Compound concentration 1.0 uM
[11] = molecular target: Casein kinase II subunit alpha (Homo sapiens) (UniProt P68400); details: Compound concentration 1.0 uM
Chain of Casein kinase II subunit alpha (Homo sapiens) (P68400 whole entry, looked up): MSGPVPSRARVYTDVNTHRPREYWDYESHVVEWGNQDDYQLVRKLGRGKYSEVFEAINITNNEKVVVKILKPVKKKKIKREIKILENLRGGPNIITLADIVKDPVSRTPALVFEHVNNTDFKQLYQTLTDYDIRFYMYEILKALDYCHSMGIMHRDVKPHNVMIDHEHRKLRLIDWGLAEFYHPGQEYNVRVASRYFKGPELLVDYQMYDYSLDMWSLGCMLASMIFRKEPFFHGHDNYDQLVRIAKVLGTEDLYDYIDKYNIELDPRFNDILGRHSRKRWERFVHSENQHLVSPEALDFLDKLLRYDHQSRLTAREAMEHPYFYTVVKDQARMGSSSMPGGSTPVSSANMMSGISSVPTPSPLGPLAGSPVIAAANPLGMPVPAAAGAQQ

[12] = molecular target: T3, Serine/threonine-protein kinase Nek9 (Homo sapiens) (UniProt Q8TD19); details: Compound concentration 1.0 uM
T3 sequence (whole entry): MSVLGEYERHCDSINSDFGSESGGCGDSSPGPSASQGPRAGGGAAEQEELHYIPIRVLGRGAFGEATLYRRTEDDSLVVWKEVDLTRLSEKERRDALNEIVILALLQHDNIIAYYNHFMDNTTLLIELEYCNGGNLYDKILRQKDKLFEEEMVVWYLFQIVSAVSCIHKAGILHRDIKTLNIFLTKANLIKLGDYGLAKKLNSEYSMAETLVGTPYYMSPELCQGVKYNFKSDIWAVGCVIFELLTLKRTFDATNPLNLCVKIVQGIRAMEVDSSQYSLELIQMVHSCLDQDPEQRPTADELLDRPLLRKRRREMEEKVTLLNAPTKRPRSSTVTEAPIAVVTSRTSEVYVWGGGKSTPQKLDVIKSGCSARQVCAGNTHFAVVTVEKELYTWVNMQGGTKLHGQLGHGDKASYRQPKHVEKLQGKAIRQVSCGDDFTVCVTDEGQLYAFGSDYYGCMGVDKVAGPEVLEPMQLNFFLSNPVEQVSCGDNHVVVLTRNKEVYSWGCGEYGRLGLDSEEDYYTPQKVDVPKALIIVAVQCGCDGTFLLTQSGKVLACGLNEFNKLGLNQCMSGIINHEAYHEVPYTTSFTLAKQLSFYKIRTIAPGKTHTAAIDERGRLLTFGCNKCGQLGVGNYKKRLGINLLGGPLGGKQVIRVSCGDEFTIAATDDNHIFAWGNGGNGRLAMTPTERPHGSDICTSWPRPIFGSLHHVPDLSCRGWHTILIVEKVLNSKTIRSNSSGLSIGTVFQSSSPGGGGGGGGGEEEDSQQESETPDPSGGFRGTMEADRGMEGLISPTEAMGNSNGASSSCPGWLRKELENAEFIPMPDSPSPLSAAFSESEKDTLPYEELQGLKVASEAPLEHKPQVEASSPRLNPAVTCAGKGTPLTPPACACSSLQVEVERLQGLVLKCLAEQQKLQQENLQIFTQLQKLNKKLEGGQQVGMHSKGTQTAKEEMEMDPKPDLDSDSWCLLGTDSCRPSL

Chain of Serine/threonine-protein kinase Nek7 (Homo sapiens) (Q8TDX7 whole entry, looked up): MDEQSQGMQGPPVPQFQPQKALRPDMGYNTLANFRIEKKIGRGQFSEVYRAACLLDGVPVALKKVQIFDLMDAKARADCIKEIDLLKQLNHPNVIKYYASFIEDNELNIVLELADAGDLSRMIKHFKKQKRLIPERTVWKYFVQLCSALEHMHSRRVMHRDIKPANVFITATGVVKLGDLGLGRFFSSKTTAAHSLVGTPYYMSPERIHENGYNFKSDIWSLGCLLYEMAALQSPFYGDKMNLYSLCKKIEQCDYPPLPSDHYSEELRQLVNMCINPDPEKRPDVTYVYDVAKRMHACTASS
Chain of D(1A) dopamine receptor (Homo sapiens) (P21728 whole entry): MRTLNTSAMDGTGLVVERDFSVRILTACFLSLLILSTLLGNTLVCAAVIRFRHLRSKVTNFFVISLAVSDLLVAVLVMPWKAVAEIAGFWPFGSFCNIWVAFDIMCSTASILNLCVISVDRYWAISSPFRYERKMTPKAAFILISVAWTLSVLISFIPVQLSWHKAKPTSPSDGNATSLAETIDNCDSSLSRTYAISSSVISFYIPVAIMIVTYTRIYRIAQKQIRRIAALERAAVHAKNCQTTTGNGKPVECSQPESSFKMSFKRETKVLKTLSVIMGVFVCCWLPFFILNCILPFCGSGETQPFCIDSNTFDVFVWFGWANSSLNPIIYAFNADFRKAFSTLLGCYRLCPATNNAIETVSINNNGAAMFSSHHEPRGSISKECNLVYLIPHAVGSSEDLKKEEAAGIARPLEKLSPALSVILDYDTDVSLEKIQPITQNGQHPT

Cc1nc(C2CCN(C(=O)c3ccc(OC(F)(F)F)cc3N)CC2)c2ncc(N3CCN(C)CC3)cc2n1 [BAY-693]
inactive: inhibition [1] 2.66%

CN1CCN(c2cnc3c(C4CCN(C(=O)c5ccc(OC(F)(F)F)cc5N)CC4)ncnc3c2)CC1 [BAY-885]
inactive: % residual kinase activity [2] 106% | % residual kinase activity [3] 106% | % residual kinase activity [4] 115% | % residual kinase activity [5] 108% | % residual kinase activity [6] 98% | % residual kinase activity [7] 110% | % residual kinase activity [8] 104% | % residual kinase activity [9] 101% | % residual kinase activity [10] 112% | % residual kinase activity [11] 92% | % residual kinase activity [12] 92%
